Laboratory results taken from patent publication US20230122393A1, “STEROIDAL NITRONE F2 FOR USE IN THE PREVENTION AND/OR TREATMENT OF PERMANENT CEREBRAL ISCHAEMIA” (ISQUAEMIA BIOTECH, S.L., priority 2020, published 2023).
“Also recorded” adds a separate entry of the source.

What was measured:
[1] = tested on: primary neuronal cultures subjected to oxygen and glucose deprivation; details: reference [17]; cited from earlier work
global cerebral ischemia [2] = assay: Y-maze spatial recognition or alternation test, long-term after global cerebral ischemia; details: i.v. at onset of reperfusion, before sacrifice at 11 weeks, vs healthy control
Protocol: (§1) In addition, animal behaviour was evaluated before sacrifice for the neurological evolution evaluation.
(§2) Animals were subjected to two behavioural tests for their neurological evaluation prior to sacrifice in order to assess the exploratory activity and spatial recognition and memory; the Y-maze paradigm was used to assess these functions. For the first test, the animal is positioned in the centre of the maze, allowing free exploration for 8 minutes. Exploratory activity is quantified and represented as an activity index. For the assessment of the spatial recognition and memory, the number of times the animals alternate among the three arms (triad number) is evaluated and quantified as an alternation index. Lower activity and/or alternation indexes are indications of reduced curiosity and spatial memory and consequently higher neurological deficit.

[3] = tested on: global cerebral ischemia, hippocampal CA1 region; assay: Long-term viable neurons (S6-positive cells) in hippocampal CA1 11 weeks after global cerebral ischemia; details: i.v. at onset of reperfusion; 11 weeks (77 days) after reperfusion
Protocol: Animal model of global cerebral ischemia, experimental design and administration of nitrones. Transient forebrain ischemia was induced in adult male Wistar rats (10-12 weeks, Charles River) by the standard four-vessel occlusion model (4V0) previously described. Briefly, both vertebral arteries were irreversibly occluded by electrocoagulation under anaesthesia with a mixture of atropine, ketamine and diazepam (0.25, 62.5, and 5 mg/kg, respectively) administered by intraperitoneal injection. After 24 h, ischemia was induced by carotid occlusion with atraumatic clips for 15 min and then clips were removed from the carotid arteries to allow reperfusion. Body temperature of 37° C. was maintained. Animals were studied at 5 days after reperfusion (R5d). A power analysis was performed (http://www.biomath.info/power/ttest.htm) to determine the sample size. The level of statistical significance was fixed at 0.05, the power set at 0.8 (80%), and the sample size obtained was <6 subjects per group. The treatments were performed with allocation concealment, assigning a random order to each vehicle or treated animal by a computer-generated randomization program. […]
Because of this, a new experimental strategy had to be used, based on the staining of viable neurons and its quantification in the areas of the brain more vulnerable to the ischemic episodes such as the hippocampal CA1 region. […]

[4] = tested on: transient forebrain ischemia (global cerebral ischemia); assay: Dose-response of neuroprotection (Fluoro-Jade B and TUNEL) in transitory global cerebral ischemia, four-vessel occlusion; details: for half effective concentration: i.v. at onset of reperfusion; for half effective concentration / maximal effect (percentage of neuroprotection): 5 days of reperfusion
Protocol: Animal model of global cerebral ischemia, experimental design and administration of nitrones. Transient forebrain ischemia was induced in adult male Wistar rats (10-12 weeks, Charles River) by the standard four-vessel occlusion model (4V0) previously described. Briefly, both vertebral arteries were irreversibly occluded by electrocoagulation under anaesthesia with a mixture of atropine, ketamine and diazepam (0.25, 62.5, and 5 mg/kg, respectively) administered by intraperitoneal injection. After 24 h, ischemia was induced by carotid occlusion with atraumatic clips for 15 min and then clips were removed from the carotid arteries to allow reperfusion. Body temperature of 37° C. was maintained. Animals were studied at 5 days after reperfusion (R5d). […] The treatments were performed with allocation concealment, assigning a random order to each vehicle or treated animal by a computer-generated randomization program. Ischemic animals were treated with nitrone F2 diluted in 10% ethanol in saline as vehicle by intravenous injection in the tail when the carotid arteries were unclamped for reperfusion. Vehicle-treated control animals were handled in the same way as treated animals. An independent investigator prepared the treatments for each animal according to the randomization schedule.
(§3) Brain sections. After 5 days after reperfusion, R5d animals were killed by transcardiac perfusion performed under deep anaesthesia. Perfusion via left ventricle was started with a washout of 200 mL of 0.9% NaCl, and the brains, following perfusion and fixation with 4% (w/v) paraformaldehyde solution in PBS, were removed and postfixed in the same solution overnight at 4° C. Brains were washed sequentially with 10, 20 and 30% (w/v) saccharose in PBS, embedded in Tissue-Tek O.C.T. (Sakura Finetek) and frozen at −80° C. prior to cryostat sectioning. Brain coronal sections containing the hippocampus were prepared at the level of interaural +5.7±0.2 mm on Real Capillary Gap microscope slides (Dako).
(§4) Neuronal death evaluation. Neuronal death was evaluated by Fluoro-Jade-B staining. Brain cryosections (10 μm thick) from ischemic animals that underwent reperfusion for 5 days were used after fixation to detect neuronal death by Fluoro-Jade-B staining (Ayuso et al. 2015 J. Med. Chem. 58, 6704-6709; 10.1021/acs.jmedchem.5b00755) and visualized by fluorescence microscopy. Labelled (dead) neuronal cells (in green) were counted as in TUNEL assay (see below). Data from different animals of each experimental group were independently analysed by two observers, and treatment information was blindly performed throughout the study.
TUNEL assay. Apoptotic neurons within brain sections were detected using the Terminal deoxynucleotidyl transferase-mediated dUTP Nick-End Labeling (TUNEL) assay (Promega). For this test, 5-μm-thick coronal cryostat brain sections containing the dorsal hippocampal formation were obtained as described above and post-fixed with 4% formaldehyde in PBS for 5 min at room temperature. After washing in PBS for three times, sections were permeabilized with 0.1 M sodium citrate, pH 6.0, for 1 min at 95° C., quickly cooled in ice and washed in PBS for 5 min at room temperature. Then, brain sections were incubated with blocking solution (0.1 M Tris-HCl, pH 7.5, 3% bovine serum albumin and 20% fetal bovine serum), washed in PBS for 5 min, and post-fixed with 4% formaldehyde in PBS for 5 min.

[5] = tested on: permanent focal cerebral ischemia (pMCAO); assay: Infarct area/volume by TTC staining after permanent MCA occlusion (pMCAO); type: in vivo, mice; details: F2 0.1 mg/kg i.p. at 2 and 12 hours after MCA occlusion
SOD1 = SOD1 protein levels by western blot in primary neuronal cultures subjected to OGD and recovery
Protocol: Primary Neuronal Cultures. […] Cell suspensions from cerebral cortex were prepared from 16- to 17-day-old Sprague-Dawley rat embryos. Living cells in cell suspension were counted by trypan blue exclusion method. Cells were seeded on plastic multidishes precoated with 0.05 mg/mL poly-D-lysine at a density of 2.5×10^5 cells/cm2 and were kept at 37° C. in a 6.5% CO2 atmosphere in high glucose Dulbecco's medium supplemented with 15% heat-inactivated (56° C. for 30 min) foetal calf serum. […]
Exposure of Cell Cultures to Oxygen—Glucose Deprivation. […] F2 were analysed independently from 4 to 8 times with different batches of cultures, and each experiment was run in quadruplicate.
35-50 μg of protein cell extracts was resolved in 10 or 12% SDS-PAGE and blotted into a polyvinylidene difluoride (PVDF) membrane (GE Healthcare). […] Then, membranes were incubated with horseradish peroxidase-conjugated secondary antibodies for 1 h, developed with the ECL-Clarity (Bio-Rad) or Prime systems (GE Healthcare) and detected in a ChemiDoc imager (Bio-Rad).
The images were quantified using the quantification software ImageLab and Quantity One (Bio-Rad Laboratories). The protein levels were expressed as intensities in arbitrary units (AU).

global cerebral ischemia [6] = assay: Therapeutic window of the neuroprotective effect in global cerebral ischemia; type: in vivo, rat
[7] = tested on: permanent focal cerebral ischemia (pMCAO); assay: Somatosensory evoked potentials after permanent MCA occlusion (pMCAO); details: F2 0.1 mg/kg i.p. at 2 and 12 h; 72 hours post-stroke and during total time of study (3 weeks)
Protocol: Evaluation of functional brain territory in stroke mice with pMCAO and treated with F2. (A) Representative somatosensory evoked contralateral potentials recorded before and 72 hours post-stroke in treated (F2) and non-treated (vehicle, control) mice. F2 was administered at 2 and 12 hours after MCA ligation. […] In both groups, the electrical stimulus was twice the current level necessary to obtain a supramaximal motor response, typically 1-2 mA. (B) Amplitude of evoked activity in the somatosensory cortex (forepaw sensory field) in the infarcted (left panel) and non-infarcted (right panel) hemispheres of non-treated (vehicle) and treated (F2) mice over time after stroke. […] Data are presented as the means ±SEM. For every time point analysed, the black asterisks denote significant differences between non-treated (vehicle) and treated (F2) mice (two-way ANOVA followed by Tukey's test; *p<0.05, **p<0.05).
Ipsilateral activity in stroke mice with pMCAO and treated with F2. […] (C) Amplitude of somatosensory evoked activity (forepaw sensory field) in the non-damaged hemisphere of non-treated (vehicle) and treated (F2) mice over time after stroke and F2 or vehicle administration.
Here, the neuroprotective efficacy of this nitrone has been assayed in a model of permanent focal cerebral ischemia in mice. […]

[8] = tested on: lipid peroxidation and ROS levels; details: preliminary results, reference [17]; cited from earlier work
global cerebral ischemia [9] = details: intraperitoneal at onset of reperfusion; reference [17]; cited from earlier work
[10] = tested on: transient focal cerebral ischemia (tMCAO); assay: Grip strength test after transient middle cerebral artery occlusion (tMCAO); details: for grip strength: 24 hours after reperfusion, VEH 91.76±2.00
Protocol: Transient occlusion of a distal branch of the middle cerebral artery (tMCAO) was induced in male C57BL/6 mice (9-12-week-old, Charles River). […] Briefly, mice were anesthetized with 4% isoflurane for induction and 1.5-2% isoflurane for maintenance (in 79% N2/21% 02). After drilling a small hole on the temporal bone, the middle cerebral artery (MCA) was compressed for 60 min with a 30-G needle using a micromanipulator. During the surgery, body temperature was maintained at 37.0±0.5° C. using a homoeothermic blanket and CBF was monitored using laser-Doppler flowmetry to confirm MCA occlusion. Buprenorphine (0.05-0.1 mg/kg) was administered subcutaneously immediately before the procedure. […] Surgical inclusion criteria: a reduction in blood flow to <25% of baseline value during ischemia period, and a recovery of 75% of baseline value in the reperfusion period. […] The treatments were administered intraperitoneally at the onset of reperfusion period by an investigator blinded to the experimental condition.
Motor functional test was performed at 1 day before surgery and 24 h and 48 h after tMCAO to evaluate ischemic outcomes and monitor motor function by a blinded researcher to experimental conditions. […] A total of 6 trials were conducted for each test and the strength value was calculated as the mean of them.

[11] = tested on: global cerebral ischemia, hippocampal CA1 and cortical regions; assay: Neuronal apoptosis by TUNEL assay, therapy window study in global cerebral ischemia; details: 5 d
Protocol: Animal model of global cerebral ischemia, experimental design and administration of nitrones. Transient forebrain ischemia was induced in adult male Wistar rats (10-12 weeks, Charles River) by the standard four-vessel occlusion model (4V0) previously described. Briefly, both vertebral arteries were irreversibly occluded by electrocoagulation under anaesthesia with a mixture of atropine, ketamine and diazepam (0.25, 62.5, and 5 mg/kg, respectively) administered by intraperitoneal injection. After 24 h, ischemia was induced by carotid occlusion with atraumatic clips for 15 min and then clips were removed from the carotid arteries to allow reperfusion. Body temperature of 37° C. was maintained. Animals were studied at 5 days after reperfusion (R5d). […] The treatments were performed with allocation concealment, assigning a random order to each vehicle or treated animal by a computer-generated randomization program. […] Vehicle-treated control animals were handled in the same way as treated animals. An independent investigator prepared the treatments for each animal according to the randomization schedule.
as §3
TUNEL assay. Apoptotic neurons within brain sections were detected using the Terminal deoxynucleotidyl transferase-mediated dUTP Nick-End Labeling (TUNEL) assay (Promega). For this test, 5-μm-thick coronal cryostat brain sections containing the dorsal hippocampal formation were obtained as described above and post-fixed with 4% formaldehyde in PBS for 5 min at room temperature. After washing in PBS for three times, sections were permeabilized with 0.1 M sodium citrate, pH 6.0, for 1 min at 95° C., quickly cooled in ice and washed in PBS for 5 min at room temperature. Then, brain sections were incubated with blocking solution (0.1 M Tris-HCl, pH 7.5, 3% bovine serum albumin and 20% fetal bovine serum), washed in PBS for 5 min, and post-fixed with 4% formaldehyde in PBS for 5 min. […]
The hippocampal CA1 subfield and cerebral and lateral cortex fields from a given section were analysed with fluorescence microscopy (40× objective) to count the number of apoptotic nuclei (green).

[12] = tested on: transient focal cerebral ischemia (tMCAO); assay: Infarct volume by TTC staining after tMCAO; type: in vivo, mice; details: 48 h; for infarct volume (as percentages): VEH 19.15±1.08
global cerebral ischemia [13] = assay: Neurological deficit score (NDS), therapy window study in global cerebral ischemia; details: 5 d
Protocol: Animal model of global cerebral ischemia, experimental design and administration of nitrones. Transient forebrain ischemia was induced in adult male Wistar rats (10-12 weeks, Charles River) by the standard four-vessel occlusion model (4V0) previously described. Briefly, both vertebral arteries were irreversibly occluded by electrocoagulation under anaesthesia with a mixture of atropine, ketamine and diazepam (0.25, 62.5, and 5 mg/kg, respectively) administered by intraperitoneal injection. After 24 h, ischemia was induced by carotid occlusion with atraumatic clips for 15 min and then clips were removed from the carotid arteries to allow reperfusion. Body temperature of 37° C. was maintained. Animals were studied at 5 days after reperfusion (R5d). […] Vehicle-treated control animals were handled in the same way as treated animals.
Evaluation of neurological deficits. Neurological deficits in rats subjected to global cerebral ischemia were blindly evaluated using a scale previously described (Ayuso et al. 2015 J. Med. Chem. 58, 6704-6709; 10.1021/acs.jmedchem.5b00755). […]
Animals were subjected to a functional test before sacrifice in order to quantify their potential disability. […]
The variables quantified to evaluate de neuroprotection of NXY-059, including neurological deficit score (NDS) and neuronal death and apoptosis in brain sections, were performed as described in Example 3. […]

[14] = tested on: global cerebral ischemia, hippocampal CA1 and cortical regions; assay: Neuronal death by Fluoro-Jade B staining, therapy window study in global cerebral ischemia; details: 5 d
Protocol: Animal model of global cerebral ischemia, experimental design and administration of nitrones. Transient forebrain ischemia was induced in adult male Wistar rats (10-12 weeks, Charles River) by the standard four-vessel occlusion model (4V0) previously described. Briefly, both vertebral arteries were irreversibly occluded by electrocoagulation under anaesthesia with a mixture of atropine, ketamine and diazepam (0.25, 62.5, and 5 mg/kg, respectively) administered by intraperitoneal injection. After 24 h, ischemia was induced by carotid occlusion with atraumatic clips for 15 min and then clips were removed from the carotid arteries to allow reperfusion. Body temperature of 37° C. was maintained. Animals were studied at 5 days after reperfusion (R5d). […] Ischemic animals were treated with nitrone F2 diluted in 10% ethanol in saline as vehicle by intravenous injection in the tail when the carotid arteries were unclamped for reperfusion. Vehicle-treated control animals were handled in the same way as treated animals.
After 5 days after reperfusion, R5d animals were killed by transcardiac perfusion performed under deep anaesthesia. Perfusion via left ventricle was started with a washout of 200 mL of 0.9% NaCl, and the brains, following perfusion and fixation with 4% (w/v) paraformaldehyde solution in PBS, were removed and postfixed in the same solution overnight at 4° C. Brains were washed sequentially with 10, 20 and 30% (w/v) saccharose in PBS, embedded in Tissue-Tek O.C.T. (Sakura Finetek) and frozen at −80° C. prior to cryostat sectioning. Brain coronal sections containing the hippocampus were prepared at the level of interaural +5.7±0.2 mm on Real Capillary Gap microscope slides (Dako).
as §4
Analysis of results included neuronal damage and death, and a functional test to which the animals were subjected prior to sacrifice. All the results were obtained 5d after post-ischemic reperfusion in a model of global cerebral ischemia.

global cerebral ischemia [15] = assay: Y-maze exploration activity test, long-term after global cerebral ischemia; details: i.v. at onset of reperfusion, before sacrifice at 11 weeks, vs healthy control
Protocol: as §1, §2

[16] = F2 0.05 mg/kg i.v. 48 h after reperfusion

SMILES: CC(C)CCC[C@@H](C)[C@H]1CC[C@H]2[C@@H]3CCC4=C/C(=[N+](\C)[O-])CC[C@]4(C)[C@H]3CC[C@]12C [F2, (E)-N-((8S,9S,10R,13R,14S,17R)-10,13-dimethyl-17-((R)-6-methylheptan-2-yl)-7,8,9,11,12,13,14,15,16,17-decahydro-1H-cyclopenta[a]phenanthren-3(2H,6H,10H)-ylidene)methanamine oxide]
- neuroprotective effect (cell viability) after OGD [1]: good neuroprotective effect in the micromolar range
- alternation index (spatial recognition test, Y-maze) (global cerebral ischemia [2]): no significant differences when compared to the scores of the control group
- viable neurons (S6-positive cells) in hippocampal CA1 [3]: significantly preserves neuronal viability
- half effective concentration ([4]; cerebral cortex): 0.015 mg/kg
- maximal effect (percentage of neuroprotection) ([4]; cerebral cortex, reached at 0.05 mg/kg i.v. at onset of reperfusion): 81%
- most effective dose in decreasing neuronal death and apoptosis ([4]; doses 0.01-0.1 mg/kg i.v., 5 days after reperfusion): 0.05 mg/kg
- maximal effect (percentage of neuroprotection) ([4]; hippocampal region CA1, at 0.05 mg/kg i.v. at onset of reperfusion): 35%
- half effective concentration ([4]; hippocampal region CA1): 0.025 mg/kg
- infarct volume vs vehicle [5]: significantly reduces infarct volume
- infarcted area (TTC staining) vs non-treated ([5]; 48 hours): lower infarcted area
- SOD1 levels (SOD1; 5 μM F2, 2 h after OGD, vs untreated and control groups): significant increase of SOD1 levels
- enhancement of the SOD1 increase caused by OGD alone (SOD1; 5 μM F2, 24 h after OGD): 15%
- administration time of maximum neuroprotective effect after reperfusion onset (global cerebral ischemia [6]; F2 0.05 mg/kg i.v.): 0 to 3 h
- therapeutic window of neuroprotective effect, time after onset of reperfusion (global cerebral ischemia [6]; F2 0.05 mg/kg i.v.): ≤ 6 h
- somatosensory evoked cortical response, damaged hemisphere (right) [7]: preserved cortical response
- lipid peroxidation and ROS levels [8]: both decreased
- neuronal death and apoptosis in hippocampus and cortex (global cerebral ischemia [9]): decreased neuronal death and apoptosis
- grip strength ([10]; 0.05 mg/kg F2 i.p. at onset of reperfusion): 110.2±5.14 grams
- grip strength ([10]; 0.1 mg/kg F2 i.p. at onset of reperfusion): 113.2±5.35 grams
- grip strength values vs vehicle ([10]; F2 0.05 or 0.1 mg/kg at onset of reperfusion, 24 h and 48 h after reperfusion): improved grip strength values
- neuronal apoptosis (TUNEL) vs vehicle ([11]; F2 0.05 mg/kg i.v. at 6 h after reperfusion): significant in both hippocampus and cerebral cortex
- neuronal apoptosis (TUNEL) vs vehicle ([11]; F2 0.05 mg/kg i.v. at 48 h after reperfusion): did not afford a significant decrease in the apoptosis
- neuronal apoptosis (TUNEL) vs vehicle ([11]; F2 0.05 mg/kg i.v., maximum effect at 0-3 hours after onset of reperfusion): significant reduction of apoptosis
- decrease of infarct volume respect to NXY059 ([12]; 0.1 mg/kg F2, p<0.05): 20.27%
- decrease of infarct volume respect to control VEH ([12]; 0.1 mg/kg F2, p<0.05): 15.20%
- infarct volume (as percentages) ([12]; F2 0.1 mg/kg i.p. at onset of reperfusion): 16.24±0.85%
- neurological deficit score (NDS) vs vehicle (global cerebral ischemia [13]; [16]): did not improve the NDS
- neuronal death (Fluoro-Jade B) vs vehicle [14, 16]: did not afford a significant decrease in the neuronal damage
- neuronal death (Fluoro-Jade B) vs vehicle ([14]; F2 0.05 mg/kg i.v. between 0 and 6 h after reperfusion, CA1 and cortex): significantly decreased neuronal death
- activity index (exploration activity test, Y-maze) (global cerebral ischemia [15]): activity scores that were equivalent to those observed in the control group

SMILES: CC(C)(C)[N+]([O-])=Cc1ccc(S(=O)(=O)[O-])cc1S(=O)(=O)[O-].[Na+].[Na+] [NXY-059, reference compound]
- alternation index (spatial recognition test, Y-maze) (global cerebral ischemia [2]): no significant differences when compared to the scores of the control group
- viable neurons (S6-positive cells) in hippocampal CA1 [3]: did not recover the damage observed
- therapeutic window (global cerebral ischemia [6]; NXY-059 40 mg/kg i.v., compared to F2): narrow therapeutic window compared to F2
- neuronal apoptosis (TUNEL) vs vehicle ([11]; NXY-059 40 mg/kg i.v. between 0 and 48 h after reperfusion): did not afford a significant decrease in the neuronal apoptosis
- infarct volume (as percentages) ([12]; NXY-059 40.0 mg/kg i.p. at onset of reperfusion): 20.37±0.93%
- neurological deficit score (NDS) vs vehicle (global cerebral ischemia [13]; NXY-059 40 mg/kg i.v. 0-48 h after reperfusion): did not improve the NDS
- neuronal death (Fluoro-Jade B) ([14]; NXY-059 40 mg/kg i.v. 1-48 h after reperfusion): did not induce a decrease in neuronal damage
- neuronal death (Fluoro-Jade B) ([14]; NXY-059 40 mg/kg i.v. at reperfusion onset (0 h), 40 mg/kg): lower neuroprotective effect; also recorded: only induced a significant decrease of neuronal damage administered at the onset of the reperfusion
- activity index (exploration activity test, Y-maze) (global cerebral ischemia [15]): neurological deficit was similar to the one obtained for VEH
